Data as given in publication PMC8878317, “Chemogenomics identifies acetyl-coenzyme A synthetase as a target for malaria treatment and prevention” (Cell Chemical Biology, 2022).
Where two headings read alike, the source gives them in different places.

Columns and labels:
Format in all cases: cell-based
[1] = tested on: P. falciparum Dd2:A597V (CRISPR edited PfAcAS); test: Blood-stage dose-response assay, CRISPR-edited Dd2:A597V line; details: Plasmodium falciparum, mean ± SD, n bioreplicates
Protocol: (§1) For in vitro–selected lines, drug susceptibility was measured by SYBR Green I–based assay ([Johnson et al., 2007]; [Smilkstein et al., 2004]). Ring-stage parasites were cultured for 72 hr at 1% hematocrit and 1% starting parasitemia in 384-well black clear-bottom plates containing test compounds plated in triplicate in 12-point serial dilutions. Lysis buffer (0.16% w/v saponin, 1.6% Triton X-100, 5 mM EDTA, and 20 mM Tris-HCl, pH 7.4) with SYBR Green I fluorescent dye (Invitrogen) was added, and fluorescence readings were taken (excitation at 494 nm, emission at 530 nm). Alternatively, Dd2-B2 ring-stage cultures at 0.3% parasitemia and 1% hematocrit were exposed for 72 hr to a range of ten drug concentrations that were 2-fold serially diluted in duplicates along with drug-free controls. Parasite survival was assessed by flow cytometry on an Accuri C6 (BD Biosciences) using SYBR Green and MitoTracker Deep Red FM (Life Technologies) as nucleic acid stain and vital dyes respectively. EC50 values were calculated using a nonlinear regression curve fit in Prism Software version 8 (GraphPad).
(§2) Mutant PfAcAS-A597V and PfAcAS-T648M parasites were generated using CRISPR/Cas9. The guide RNAs for PfAcAS-A597V (5′-[…]-3′; 5′-[…]-3′) and for PfAcAS-T648M (5′-[…]-3′) were designed using Benchling (https://benchling.com/) to targeting sites in PfAcAS that were 6-14 bp upstream of the A597 codon and 6 bp downstream of the T648 codon respectively. Complementary oligos encoding the gRNA sequences (5′- tatt[…]-3’ / 5’-aaac[…]-3’; 5’-tatt[…]-3’ / 5’-aaac[…]-3’ and 5’- tattg[…]-3’ / 5’-aaac[…]c-3’ ) were phosphorylated using T4 polynucleotide kinase and annealed (95°C for 5 min, then step down of 5°C/min to 25°C) prior to ligation into the BbsI-digested pDC2-coCas9-U6.2-hDHFR plasmid ([Lim et al., 2016]). The donor template for PfAcAS-A597V was synthesized (ThermoFisher) as a 700 bp Genestring fragment spanning position 1468 to 2168 of the PfAcAS gene, and the donor for PfAcAS-T648M synthesized as a 829 bp fragment spanning position 1468 to 2297 and inserted into the AatII/EcoRI sites of the pDC2-coCas9-gRNA-hDHFR plasmid by Gibson assembly. Ring-stage parasites (Dd2) at 5% parasitemia were transfected by electroporation (BioRad Gene Pulser II at 0.310 kV and 950 μF) with 50 μg of each plasmid (plasmid 1: pDC2-coCas9-AcAS-A597V-gRNA1-hDHFR, plasmid 2: pDC2-coCas9-gRNA2-hDHFR, or plasmid 3: pDC2-coCas9-AcAS-T648M-gRNA1-hDHFR), and parasites selected for 10 days with 2.5 nM WR99210 (Jacobus Pharmaceuticals), followed by removal of drug pressure. After confirmation of editing in the bulk culture, clones were isolated by serial limiting dilution and confirmed by Sanger sequencing after PCR amplification from genomic DNA using forward primer 5′-[…]-3′ and reverse primer 5′-[…]-3′ (for A597V) and 5′-[…]-3′ (for T648M).

P. falciparum 3D7-A10 = test: Blood-stage dose-response assay (SYBR Green I, 72 hr), 3D7 / 3D7-A10 parent; details: Plasmodium falciparum
Protocol: (§3) The 3D7-A10 clone has been used in previous in vitro drug selection and sequencing efforts ([Cowell et al., 2018]). Dd2 parasites were obtained from T. Wellems (NIAID, NIH). Dd2-B2 is a genetically homogeneous line that was cloned from Dd2 by limiting dilution in the Fidock lab. Parasite strains were cultured in 3-5% human O+ hematocrit in RPMI 1640 (Life Technologies) supplemented with 28 mM NaHCO3, 25 mM HEPES, and hypoxanthine ([…]). Depending on the parasite line, the media either contained gentamycin (25 μg/mL), or no antibiotic and was additionally supplemented with 0.5% AlbuMAX II (Life Technologies) and/or O+ human serum (heat inactivated and pooled). Blood and serum products were obtained from Interstate Blood Bank. Cultures were maintained at 37°C in 1.1% O2, 4% CO2, and 95% N2. Parasite populations were synchronized by 5% sorbitol treatment ([Lambros and Vanderberg, 1979]).
as §1

[2] = tested on: P. falciparum Dd2:T648M (CRISPR edited PfAcAS); test: Blood-stage dose-response assay, CRISPR-edited Dd2:T648M line; details: Plasmodium falciparum, mean ± SD, n bioreplicates
Protocol: as §1, §2

P. falciparum Dd2-B2 = test: Blood-stage dose-response assay (72 hr), Dd2 / Dd2-B2 parent; details: Plasmodium falciparum
Protocol: as §3, §1

[3] = tested on: P. falciparum control YFP cKD line; test: cKD compound susceptibility assay, control YFP cKD line; details: Plasmodium falciparum
Protocol: Synchronous ring-stage, aptamer-regulated PfAcAS and control parasite lines were resuspended in varying aTc concentrations (high = 50 nM, low = 1 nM, and no aTc) and distributed into the drug plate. DMSO carrier and chloroquine (200 nM) wells served as positive and negative controls.

[4] = mean ± SD, n bioreplicates, read-out: 3D7-A10 parent EC50 ± SD
[5] = DD2, read-out: Dd2-B2 parent EC50 ± SD (nM)
[6] = read-out: control cKD EC50 ± SD (nM) (0nM aTc)
[7] = read-out: control cKD EC50 ± SD (nM) (50nM aTc)

Row | SMILES | EC50 [1] [nM] | EC50 (P. falciparum 3D7-A10; [4]) [nM] | EC50 [2] [nM] | EC50 (P. falciparum Dd2-B2; [5]) [nM] | EC50 (P. falciparum 3D7-A10; blood-stage parasites in vitro, read-out: P. falciparum 3D7 half-maximal effective concentration [EC50]) [nM] | EC50 (P. falciparum Dd2-B2; DD2, read-out: P. falciparum Dd2 EC50) [nM] | EC50 (P. falciparum Dd2-B2; DD2, read-out: mean EC50 (nM) ± SD (n)) [nM] | EC50 [3, 6] [nM] | EC50 [3, 7] [nM]
1 | O=C1C(O)=C([C@H]2CC[C@H](c3ccc(Cl)cc3)CC2)C(=O)c2ccccc21 [Atovaquone, reference compound] | 0.55 ± 0.35 | 0.42 ± 0.05 | 0.69 ± 0.38 | 0.3 ± 0.13 | – | – | – | – | –
2 | CCN(CC)S(=O)(=O)c1ccc(Cl)c(C(=O)Nc2ccc3nc(C)sc3c2)c1 [MMV019721] | 6200 | 400 ± 58 | 8200 | 400 ± 72 | 460 ± 100 | 400 ± 72 | 400 ± 72 | 200 ± 61 | 210 ± 80
3 | O=C(NNC(=O)c1csnn1)c1ccc(Cl)cc1 [MMV084978] | 43000 | 110 ± 28 | 12000 | 150 ± 36 | – | – | – | 240 ± 29 | 230 ± 23
